Test results published in patent publication US20230021483A1, “[…] […] METHOD AND CLASSIFICATION OF PHARMACEUTICAL COMPONENTS BY USING TRANSCRIPTOMES” (National Institutes of Biomedical Innovation, Health and …, priority 2016, published 2023).

Legend:
Assay type in all cases: in vivo, C57BL/6 mice
spleen (SP) = assay: Whole organ transcriptome (GeneChip microarray) of spleen 6 h after adjuvant administration: sDEGs, hierarchical clustering; as to adjuvant group (cluster) in SP: key: G1 (interferon signaling); G2 (metabolism of lipids and lipoproteins); G3 (response to stress); G4 (response to wounding); G5 (phosphate-containing compound metabolic process); G6 (phagosome)
[1] = tested on: inguinal lymph nodes (LN); assay: Whole organ transcriptome (GeneChip microarray) of draining inguinal lymph nodes 6 h after adjuvant administration: sDEGs, gene modules, hierarchical clustering; as to adjuvant group (cluster) in LN: key: G1 (interferon signaling); G2 (metabolism of lipids and lipoproteins); G3 (response to stress); G4 (response to wounding); G5 (phosphate-containing compound metabolic process); G6 (phagosome)
liver (LV) = assay: Whole organ transcriptome (GeneChip microarray) of liver 6 h after adjuvant administration: sDEGs, hierarchical clustering; details: liver; as to adjuvant group (cluster) in LV: key: G1 (interferon signaling); G2 (metabolism of lipids and lipoproteins); G3 (response to stress); G4 (response to wounding); G5 (phosphate-containing compound metabolic process); G6 (phagosome)
[2] = tested on: preferentially upregulated genes in LV, SP, LN; assay: Z-score-based differential gene expression analysis (adjuvant group- or adjuvant-associated genes, 40 module mapping, TargetMine annotation); details: ID
Description: Each sample's FC value was converted into a z-score on a gene basis by using the entire data set for each organ. The Z-score of the triplicates of interest were summed for each adjuvant. For example, the three sample z-score in the LV sample following cdiGMP administration was summed on a gene-by-gene basis, after which the summed scores of >3 genes were selected as relatively preferentially expressed genes in the LV after cdiGMP administration. The following threshold was applied for selections. […] G2^LV: ALM_IP(z>1) & bCD(z>1) & ENDCN(z>1) & FCA(z>1). […] G4^LV: MALP2s(z>3). […] G2^SP: ENDCN_x2+ENDCN_x3(z>2) & ALM_IP(z>3) & bCD(z>3). […] G4^SP: ADX_ID_x2+ADX_ID_x3(z>2) & ADX_IP(z>3) & MALP2s(z>3). […] G2^LN: bCD(z>3) & FCA(z>3). […] G5^LN: K3(z>1.5) & K3SPG_x1+K3SPG_x2(z>1) & D35_x1+D35_x3(z>1). G6^LN: AddaVax(z>3).

[3] = i.d. administration, fold change <0.667, p<0.01, customized PA call=1, 6 h after adjuvant
[4] = i.d. administration, fold change >1.5, p<0.01, customized PA call=1, 6 h after adjuvant

Cc1ccc2c(=O)c3cccc(CC(=O)O)c3oc2c1C [DMXAA, 5,6-dimethylxanthenone-4-acetic acid]
adjuvant group (cluster) in SP (spleen (SP); hierarchical clustering): G1 | Number of gene probes with statistically significant changes (sDEGs), SP, Down (spleen (SP); [3]): 48 | Number of gene probes with statistically significant changes (sDEGs), SP, Up (spleen (SP); [4]): 121 | module M40^LN (immune system process; dendritic cells, macrophages, neutrophils, stromal cells) ([1]; LN, 6 h): strongly induced | adjuvant group (cluster) in LN ([1]; hierarchical clustering, lymph node): G1 | Number of gene probes with statistically significant changes (sDEGs), LN, Down ([1]; i.d. administration, lymph node, fold change <0.667, p<0.01, customized PA call=1, 6 h after adjuvant): 261 | Number of gene probes with statistically significant changes (sDEGs), LN, Up ([1]; i.d. administration, lymph node, fold change >1.5, p<0.01, customized PA call=1, 6 h after adjuvant): 1342 | adjuvant group (cluster) in LV (liver (LV); hierarchical clustering): G1 | Number of gene probes with statistically significant changes (sDEGs), LV, Down (liver (LV); [3]): 101 | Number of gene probes with statistically significant changes (sDEGs), LV, Up (liver (LV); [4]): 162 | z sum, 1428027_at LOC100653389 ([2]; LN, Modules 26): −2.22 | z sum, 1419721_at Niacr1 ([2]; LN, Modules 27): −1.88 | z sum, 1418424_at Tnfaip6 ([2]; LN, Modules 29): −1.91 | z sum, 1419534_at Olr1 ([2]; LN, Modules 29): −1.6 | z sum, 1421457_a_at Samsn1 ([2]; LN, Modules 29): −2.04 | z sum, 1422305_at Ifnb1 ([2]; LN, Modules 29): −1.99 | z sum, 1423028_at Ifna2 ([2]; LN, Modules 29): −2.04 | z sum, 1425837_a_at Ccrn4l ([2]; LN, Modules 29): −1.85 | z sum, 1436387_at C330006P03Rik///Homer1 ([2]; LN, Modules 29): −2.24 | z sum, 1439349_at Sbno2 ([2]; LN, Modules 29): −1.84 | z sum, 1444010_at Eif4e ([2]; LN, Modules 29): −1.94 | z sum, 1448325_at Ppp1r15a ([2]; LN, Modules 29): −1.63 | z sum, 1449311_at Bach1 ([2]; LN, Modules 29): −1.97 | z sum, 1450297_at Il6 ([2]; LN, Modules 29): −1.88 | z sum, 1455197_at Rnd1 ([2]; LN, Modules 29): −1.86 | z sum, 1455899_x_at Socs3 ([2]; LN, Modules 29): −1.79 | z sum ([2]; LN, Modules 34): −2.09 | z sum, 1417252_at Ptgs2 ([2]; LN, Modules 34): −1.55 | z sum, 1417263_at Ptgs2 ([2]; LN, Modules 34): −1.77 | z sum, 1421473_at Il1a ([2]; LN, Modules 34): −1.71 | z sum, 1439981_at Tespa1 ([2]; LN, Modules 35): −1.8 | z sum, 1441843_s_at 5230400M03Rik ([2]; LN, Modules 35): −2.25 | z sum, 1442556_at --- ([2]; LN, Modules 35): −2.03 | z sum, 1443414_at C78513 ([2]; LN, Modules 35): −2.02 | z sum, 1444598_at --- ([2]; LN, Modules 35): −2 | z sum, 1445534_at --- ([2]; LN, Modules 35): −2 | z sum, 1446245_at --- ([2]; LN, Modules 35): −2.34 | z sum, 1457944_at --- ([2]; LN, Modules 35): −2.16 | z sum, 1458376_at B930025B16Rik ([2]; LN, Modules 35): −2.11 | z sum, 1459144_at --- ([2]; LN, Modules 35): −2.06 | z sum, 1425687_at Cflar ([2]; LN, Modules 36): −1.76 | z sum, 1427736_a_at Ccrl2 ([2]; LN, Modules 36): −2.22 | z sum, 1449169_at Has2 ([2]; LN, Modules 36): −2.25 | z sum, 1453636_at Pcgf5 ([2]; LN, Modules 36): −2.11 | z sum, 1457888_at --- ([2]; LN, Modules 36): −2.02 | z sum, 1419508_at Ripk1 ([2]; LN, Modules 37): −2.04 | z sum, 1421578_at Ccl4 ([2]; LN, Modules 37): −1.85 | z sum, 1421679_a_at Cdkn1a ([2]; LN, Modules 37): −1.99 | z sum, 1424638_at Cdkn1a ([2]; LN, Modules 37): −1.71 | z sum, 1433508_at Klf6 ([2]; LN, Modules 37): −1.54 | z sum, 1434350_at Csrnp1 ([2]; LN, Modules 37): −1.99 | z sum, 1439680_at Tnfsf10 ([2]; LN, Modules 37): −2.27 | z sum, 1448724_at Cish ([2]; LN, Modules 37): −1.56 | z sum, 1451340_at Arid5a ([2]; LN, Modules 37): −2.28 | z sum, 1453851_a_at Gadd45g ([2]; LN, Modules 37): −2 | z sum, 1457404_at Nfkbiz ([2]; LN, Modules 37): −2.06 | z sum, 1458589_at --- ([2]; LN, Modules 37): −1.59 | z sum, 1422054_a_at 5kil ([2]; LN, Modules 40): −1.69 | z sum, 1428735_at Cd69 ([2]; LN, Modules 40): −2.42 | Adar 1425405_a_at (Group G1, Modules 20) ([2]; LV, sample x1): 2.03 | Adar 1434268_at (Group G1, Modules 20) ([2]; LV, sample x1): 2.15 | Ddx58 1436562_at (Group G1, Modules 20) ([2]; LV, sample x1): 2.07 | Ddx58 1456890_at (Group G1, Modules 20) ([2]; LV, sample x1): 1.67 | Eif2ak2 1422005_at (Group G1, Modules 20) ([2]; LV, sample x1): 1.36 | G3bp2 1421323_a_at (Group G1, Modules 20) ([2]; LV, sample x1): 1.32 | Gm9706///Isg15 1431591_s_at (Group G1, Modules 20) ([2]; LV, sample x1): 1.28 | H2-T10///H2-T22///H2-T9 1449875_s_at (Group G1, Modules 20) ([2]; LV, sample x1): 1.27 | Ifih1 1426276_at (Group G1, Modules 20) ([2]; LV, sample x1): 1.25 | Ifit1 1450783_at (Group G1, Modules 20) ([2]; LV, sample x1): 2.21 | Ifit3 1449025_at (Group G1, Modules 20) ([2]; LV, sample x1): 1.39 | Irf7 1417244_a_at (Group G1, Modules 20) ([2]; LV, sample x1): 1.05 | Irgm1 1418825_at (Group G1, Modules 20) ([2]; LV, sample x1): 1.39
